Experimental data: patent US6403343B2, “Method of producing a taxane-type diterpene and a method of obtaining cultured cells which produce the taxane-type dilterpene at a high rate” (Mitsui Chemicals, Inc., priority 1993, dated 2002)

Test system: cultured cells of Taxus baccata LINN
Assay: Growth rate and taxane yield, shake culture under controlled oxygen concentration in the gas phase, with or without methyl jasmonate
Format: cell-based
Details: max oxygen in gas phase 10%; for yield of baccatin III / yield of cephalomannine / yield of taxol: cell + medium
Protocol: One gram (fresh weight) of the callus was inoculated to an Erlenmeyer flask containing 20 ml of liquid Woody Plant Medium to which the above-mentioned component had been added to give the same concentration and shake culture was carried out with a rotary shaker (amplification of 25 mm, 100 rpm) and the callus was subcultured in every 21 days to accelerate the growth rate of the callus.
One gram (fresh weight) of the cultured cells thus obtained was inoculated to an Erlenmeyer flask containing 20 ml of liquid Woody Plant Medium to which the above-mentioned component had been added to give the same concentration, and the flask was placed in a chamber (the capacity of 3000 ml) having a gas feed opening and a gas discharge opening, then the chamber was closed hermetically, and air was so mixed with nitrogen that the concentration of the oxygen in a gas to be supplied to the cells to be cultured became 4-15%, and while the gas was supplied through the feed opening at the rate of 25 ml per minute, shake culture was carried out at 25° C. for 21 days.
After completing the culture, cultured cells of Taxus baccata LINN were harvested by filtration and lyophilized, then the dry weight was measured to obtain the growth rate thereof. Taxane-type diterpenes were extracted from the dried cells with methanol and the like, and they were determined by comparing with standard taxol, cephalomannine, and baccatin III using high performance liquid chromatography to measure the yields of the taxane-type diterpenes.

CCC=CCC1C(=O)CCC1CC(=O)OC (stereo not drawn) [Example 66]
growth rate (methyl jasmonate 10 μM): 2.82 times
total yield of taxane (methyl jasmonate 10 μM): 14.73 mg/L
yield of baccatin III (methyl jasmonate 10 μM): 2.26 mg/L
yield of cephalomannine (methyl jasmonate 10 μM): 1.73 mg/L
yield of taxol (methyl jasmonate 10 μM): 10.24 mg/L
growth rate (methyl jasmonate 100 μM): 2.45 times
total yield of taxane (methyl jasmonate 100 μM): 36.05 mg/L
yield of baccatin III (methyl jasmonate 100 μM): 11.32 mg/L
yield of cephalomannine (methyl jasmonate 100 μM): 2.29 mg/L
yield of taxol (methyl jasmonate 100 μM): 22.44 mg/L
growth rate (methyl jasmonate 1000 μM): 1.47 times
total yield of taxane (methyl jasmonate 1000 μM): 8.61 mg/L
yield of baccatin III (methyl jasmonate 1000 μM): 2.10 mg/L
yield of cephalomannine (methyl jasmonate 1000 μM): 1.47 mg/L
yield of taxol (methyl jasmonate 1000 μM): 5.04 mg/L
